Consider 22 molecules from patent US11286243B2 (GLOBAL BLOOD THERAPEUTICS, INC., priority 2018, dated 2022).

Where only a bound is given, the exact number is not on record here.

This test has as its target T1, human ferroportin (Homo sapiens, UniProt Q9NP59).
T1 construct: luciferase reporter (probably NanoLuc: read with the Nano-Glo Luciferase Assay System); expressed in transfected cells; host or cells: CHO cells, stably transfected, doxycycline-inducible expression
T1 sequence (Q9NP59 1-571): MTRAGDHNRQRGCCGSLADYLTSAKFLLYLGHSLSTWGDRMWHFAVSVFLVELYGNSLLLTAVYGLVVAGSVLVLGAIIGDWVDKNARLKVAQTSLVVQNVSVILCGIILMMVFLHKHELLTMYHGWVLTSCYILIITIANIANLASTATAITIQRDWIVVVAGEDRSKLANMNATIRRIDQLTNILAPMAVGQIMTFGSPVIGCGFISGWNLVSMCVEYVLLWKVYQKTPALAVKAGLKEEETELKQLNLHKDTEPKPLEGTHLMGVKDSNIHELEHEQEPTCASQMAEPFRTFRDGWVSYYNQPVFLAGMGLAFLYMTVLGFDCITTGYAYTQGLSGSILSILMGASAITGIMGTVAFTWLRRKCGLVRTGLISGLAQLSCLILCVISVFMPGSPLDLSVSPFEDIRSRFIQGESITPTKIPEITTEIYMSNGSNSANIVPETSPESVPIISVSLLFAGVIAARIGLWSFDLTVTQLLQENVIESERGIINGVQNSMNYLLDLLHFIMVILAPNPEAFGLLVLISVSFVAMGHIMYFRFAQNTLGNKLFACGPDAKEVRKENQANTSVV
Nature of the test: In-vitro ferroportin internalization assay (luciferase reporter). The test is classed as cell-based. As to conditions: average pEC50; stably-transfected CHO cell line expressing human ferroportin tagged to a luciferase reporter; 6 h incubation with test compounds. The method, then:
The protocol for this assay is generally as described in WO2018/128828, incorporated herein by reference in its entirety. Functional internalization of ferroportin protein was measured using a stably-transfected CHO cell line expressing the human ferroportin tagged to a luciferase reporter. Cells were plated for 24 h in the presence of ferric ammonium citrate (FAC). Ferroportin protein expression was induced with doxycycline for 24 h. The next day, the compounds were added. Test compounds were dissolved in DMSO. Cells were incubated with the test compounds for 6 h, and subsequently luciferase activity was measured using the Nano-Glo Luciferase Assay System and Glomax (Promega, Madison, Wis.).
The average pEC50 was determined for the test compounds.

`Oc1nc(NCc2ncccc2F)c2nc(CCNCCc3nc4ccccc4[nH]3)oc2n1` [Compound 36, 2-(2-{[2-(1H-1,3-benzodiazol-2-yl)ethyl]amino}ethyl)-7-{[(3-fluoropyridin-2-yl)methyl]amino}-[1,3]oxazolo[5,4-d]pyrimidin-5-ol]: the pEC50 is 6.4.

In turn, `Cc1nc(CCNCCc2nc3c(NCc4ncccc4F)nc(O)nc3s2)[nH]c1C` [Compound 76, 2-(2-{[2-(4,5-dimethyl-1H-imidazol-2-yl)ethyl]amino}ethyl)-7-{[(3-fluoropyridin-2-yl)methyl]amino}-[1,3]thiazolo[5,4-d]pyrimidin-5-ol] yielded a negative-log EC50 (pEC50) of 8.1. `CC(CNCCc1nc2ccccc2[nH]1)c1nc2c(NCc3ncccc3F)ncnc2s1` (stereo not shown) [Compound 24, 2-(1-{[2-(1H-1,3-benzodiazol-2-yl)ethyl]amino}propan-2-yl)-N-[(3-fluoropyridin-2-yl)methyl]-[1,3]thiazolo[5,4-d]pyrimidin-7-amine] displayed a pEC50 of 5.8. `Oc1nc(NCc2ncccc2F)c2nc(CCNCCc3nc4ccccc4[nH]3)sc2n1` [Compound 23, 2-(2-{[2-(1H-1,3-benzodiazol-2-yl)ethyl]amino}ethyl)-7-{[(3-fluoropyridin-2-yl)methyl]amino}-[1,3]thiazolo[5,4-d]pyrimidin-5-ol] displayed a pEC50 of 8.8. With `Cc1nc(CCNCCc2nc3c(NCc4ncccc4F)ncnc3s2)[nH]c1-c1ccccc1` [Compound 64, N-[(3-fluoropyridin-2-yl)methyl]-2-(2-{[2-(4-methyl-5-phenyl-1H-imidazol-2-yl)ethyl]amino}ethyl)-[1,3]thiazolo[5,4-d]pyrimidin-7-amine] the figure was 7. Molecule `O=C(NCc1ccc2[nH]c(CCNCCc3nc4c(NCc5ncccc5F)ncnc4s3)nc2c1)c1ccc2c(c1)C1(OC2=O)c2ccc(O)cc2Oc2cc(O)ccc21` [Compound 80] came in with a pEC50 of less than 5.

Regarding `[N-]=[N+]=Nc1cccnc1CNc1ncnc2sc(CCNCCc3nc4cc(I)ccc4[nH]3)nc12` [Compound 32, N-[(3-azidopyridin-2-yl)methyl]-2-(2-{[2-(5-iodo-1H-1,3-benzodiazol-2-yl)ethyl]amino}ethyl)-[1,3]thiazolo[5,4-d]pyrimidin-7-amine], the pEC50 amounted to 6.9. `Fc1cccnc1CNc1ncnc2sc(CCNCc3nc(-c4ccccc4)c[nH]3)nc12` [Compound 49, N-[(3-fluoropyridin-2-yl)methyl]-2-(2-{[(4-phenyl-1H-imidazol-2-yl)methyl]amino}ethyl)-[1,3]thiazolo[5,4-d]pyrimidin-7-amine] had a pEC50 of 6.9. On to `Fc1cccnc1CNc1ncnc2sc(CCNCCc3ncc(Cc4ccccc4)[nH]3)nc12` [Compound 43, 2-(2-{[2-(5-benzyl-1H-imidazol-2-yl)ethyl]amino}ethyl)-N-[(3-fluoropyridin-2-yl)methyl]-[1,3]thiazolo[5,4-d]pyrimidin-7-amine], for which the pEC50 came out at 8.4. Regarding `Clc1cccnc1CNc1ncnc2sc(CCNCCc3nc4ccccc4[nH]3)nc12` [Compound 6, 2-(2-{[2-(1H-1,3-benzodiazol-2-yl)ethyl]amino}ethyl)-N-[(3-chloropyridin-2-yl)methyl]-[1,3]thiazolo[5,4-d]pyrimidin-7-amine], the pEC50 was 7.8. Consider `CC(Cc1nc2ccccc2[nH]1)NCCc1nc2c(NCc3ncccc3F)ncnc2s1` (stereo not shown) [Compound 40, 2-(2-{[1-(1H-1,3-benzodiazol-2-yl)propan-2-yl]amino}ethyl)-N-[(3-fluoropyridin-2-yl)methyl]-[1,3]thiazolo[5,4-d]pyrimidin-7-amine], for which the pEC50 worked out at 6.2. In the case of `Fc1ccc(CNc2ncnc3sc(CCNCCc4nc5ccccc5[nH]4)nc23)nc1` [Compound 8, 2-(2-{[2-(1H-1,3-benzodiazol-2-yl)ethyl]amino}ethyl)-N-[(5-fluoropyridin-2-yl)methyl]-[1,3]thiazolo[5,4-d]pyrimidin-7-amine], the pEC50 is 6.4. As for `Cc1nc(CCNCCc2nc3c(NCc4ncccc4F)nccc3s2)[nH]c1C` [Compound 73, 2-(2-{[2-(4,5-dimethyl-1H-imidazol-2-yl)ethyl]amino}ethyl)-N-[(3-fluoropyridin-2-yl)methyl]-[1,3]thiazolo[4,5-c]pyridin-4-amine], the pEC50 is listed as 7.6. In the case of `Fc1cccnc1CNc1ncnc2sc(CCNCCc3nc4c(F)cccc4[nH]3)nc12` [Compound 15, 2-(2-{[2-(4-fluoro-1H-1,3-benzodiazol-2-yl)ethyl]amino}ethyl)-N-[(3-fluoropyridin-2-yl)methyl]-[1,3]thiazolo[5,4-d]pyrimidin-7-amine], the pEC50 is given as 6.8. Take `CC(CNCCc1nc2c(NCc3ncccc3F)nccc2o1)c1nc2ccccc2[nH]1` (stereo not shown) [Compound 61, 2-(2-{[2-(1H-1,3-benzodiazol-2-yl)propyl]amino}ethyl)-N-[(3-fluoropyridin-2-yl)methyl]-[1,3]oxazolo[4,5-c]pyridin-4-amine]: the pEC50 was 6.9. Consider `Cc1nc(CCNCCc2nc3c(NCc4ncccc4F)ncnc3s2)[nH]c1C` [Compound 55, 2-(2-{[2-(4,5-dimethyl-1H-imidazol-2-yl)ethyl]amino}ethyl)-N-[(3-fluoropyridin-2-yl)methyl]-[1,3]thiazolo[5,4-d]pyrimidin-7-amine], for which the pEC50 is on record as 7.6.

The molecule `COc1cc2sc(CCNCCc3nc4ccccc4[nH]3)nc2c(NCc2ncccc2F)n1` [Compound 19, 2-(2-{[2-(1H-1,3-benzodiazol-2-yl)ethyl]amino}ethyl)-N-[(3-fluoropyridin-2-yl)methyl]-6-methoxy-[1,3]thiazolo[4,5-c]pyridin-4-amine] yielded a pEC50 of 6.2. In the case of `Cc1ncc(-c2cc(CNCCc3nc4c(NCc5ncccc5F)ncnc4s3)c(Cl)s2)[nH]1` [Compound 69, 2-[2-({[2-chloro-5-(2-methyl-1H-imidazol-5-yl)thiophen-3-yl]methyl}amino)ethyl]-N-[(3-fluoropyridin-2-yl)methyl]-[1,3]thiazolo[5,4-d]pyrimidin-7-amine], the pEC50 is 5.2. For `Fc1cccnc1CNc1ncnc2sc(CCNCCc3ncc(-c4ccncc4)[nH]3)nc12` [Compound 79, N-[(3-fluoropyridin-2-yl)methyl]-2-[2-({2-[5-(pyridin-4-yl)-1H-imidazol-2-yl]ethyl}amino)ethyl]-[1,3]thiazolo[5,4-d]pyrimidin-7-amine] the value was less than 5. Molecule `Fc1cccnc1CNc1nccc2oc(CCNCCc3ncc(C(F)(F)F)[nH]3)nc12` [Compound 57, N-[(3-fluoropyridin-2-yl)methyl]-2-[2-({2-[5-(trifluoromethyl)-1H-imidazol-2-yl]ethyl}amino)ethyl]-[1,3]oxazolo[4,5-c]pyridin-4-amine] showed a pEC50 of 5.4. The molecule `Fc1cccnc1CNc1ncnc2sc(CCNCCc3ncc[nH]3)nc12` [Compound 42, N-[(3-fluoropyridin-2-yl)methyl]-2-(2-{[2-(1H-imidazol-2-yl)ethyl]amino}ethyl)-[1,3]thiazolo[5,4-d]pyrimidin-7-amine] came in with a pEC50 of 7.3. As for `OC(CNCCc1nc2c(NCc3ncccc3F)ncnc2s1)c1nc2ccccc2[nH]1` (stereo not shown) [Compound 50, 1-(1H-1,3-benzodiazol-2-yl)-2-{[2-(7-{[(3-fluoropyridin-2-yl)methyl]amino}-[1,3]thiazolo[5,4-d]pyrimidin-2-yl)ethyl]amino}ethan-1-ol], the pEC50 turned out to be 5.1.
